Source: PubChem BioAssay (NCI)
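A five-concentration, 48-hour dose response in 96-well plates underlies each endpoint, interpolated linearly between surrounding concentrations. TGI: total growth inhibition.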

Key:
Assay in all cases: NCI anticancer screen, dose series, 48 h
[1] = test system: 786-0 renal
[2] = test system: A498 renal
[3] = test system: A549 NSCLC
[4] = test system: ACHN renal
[5] = test system: CCRF-CEM leukemia
[6] = test system: COLO 205 colon
[7] = test system: DLD-1 colon
[8] = test system: DMS 273 small cell lung
[9] = test system: EKVX NSCLC
[10] = test system: HCC-2998 colon
[11] = test system: HCT-116 colon
[12] = test system: HL-60(TB) leukemia
[13] = test system: HOP-18 NSCLC
[14] = test system: HOP-92 NSCLC
[15] = test system: HT29 colon
[16] = test system: IGROV1 ovarian
[17] = test system: K-562 leukemia
[18] = test system: KM12 colon
[19] = test system: KM20L2 colon
[20] = test system: LOX IMVI melanoma
[21] = test system: LXFL 529 NSCLC
[22] = test system: M14 melanoma
[23] = test system: M19-MEL melanoma
[24] = test system: MOLT-4 leukemia
[25] = test system: NCI-H23 lung
[26] = test system: NCI-H460 lung
[27] = test system: NCI-H522 lung
[28] = test system: OVCAR-3 ovarian
[29] = test system: OVCAR-4 ovarian
[30] = test system: OVCAR-5 ovarian
[31] = test system: OVCAR-8 ovarian
[32] = test system: RPMI-8226 leukemia
[33] = test system: RXF 393 renal
[34] = test system: SF-268 CNS
[35] = test system: SF-295 CNS
[36] = test system: SF-539 CNS
[37] = test system: SK-MEL-2 melanoma
[38] = test system: SK-MEL-28 melanoma
[39] = test system: SK-MEL-5 melanoma
[40] = test system: SK-OV-3 ovarian
[41] = test system: SN12C renal
[42] = test system: SNB-19 CNS
[43] = test system: SNB-75 CNS
[44] = test system: SNB-78 CNS
[45] = test system: SR leukemia
[46] = test system: SW-620 colon
[47] = test system: TK-10 renal
[48] = test system: U251 CNS
[49] = test system: UACC-257 melanoma
[50] = test system: UACC-62 melanoma
[51] = test system: UO-31 renal
[52] = test system: XF 498 CNS
[53] = test system: CAKI-1 renal
[54] = test system: DMS 114 small cell lung
[55] = test system: HCT-15 colon
[56] = test system: MALME-3M melanoma
[57] = test system: NCI-H226 lung

## CCN1CCC(O)(c2ccc(Cl)cc2)C(C(=O)c2ccc(Cl)cc2)C1 (stereo not drawn)
[1]
  TGI: > 100 µM
[2]
  TGI: > 100 µM
[3]
  TGI: > 100 µM
[4]
  TGI: > 100 µM
[5]
  TGI: > 100 µM
[6]
  TGI: > 100 µM
[7]
  TGI: > 100 µM
[8]
  TGI: > 100 µM
[9]
  TGI: > 100 µM
[10]
  TGI: > 100 µM
[11]
  TGI: > 100 µM
[12]
  TGI: > 100 µM
[13]
  TGI: 95.9 µM
[14]
  TGI: > 100 µM
[15]
  TGI: > 100 µM
[16]
  TGI: > 100 µM
[17]
  TGI: > 100 µM
[18]
  TGI: > 100 µM
[19]
  TGI: > 100 µM
[20]
  TGI: > 100 µM
[21]
  TGI: > 100 µM
[22]
  TGI: > 100 µM
[23]
  TGI: > 100 µM
[24]
  TGI: > 100 µM
[25]
  TGI: > 100 µM
[26]
  TGI: > 100 µM
[27]
  TGI: 41.9 µM
[28]
  TGI: > 100 µM
[29]
  TGI: > 100 µM
[30]
  TGI: > 100 µM
[31]
  TGI: > 100 µM
[32]
  TGI: 64.2 µM
[33]
  TGI: > 100 µM
[34]
  TGI: > 100 µM
[35]
  TGI: > 100 µM
[36]
  TGI: > 100 µM
[37]
  TGI: > 100 µM
[38]
  TGI: > 100 µM
[39]
  TGI: > 100 µM
[40]
  TGI: > 100 µM
[41]
  TGI: > 100 µM
[42]
  TGI: > 100 µM
[43]
  TGI: > 100 µM
[44]
  TGI: > 100 µM
[45]
  TGI: > 100 µM
[46]
  TGI: > 100 µM
[47]
  TGI: > 100 µM
[48]
  TGI: > 100 µM
[49]
  TGI: > 100 µM
[50]
  TGI: > 100 µM
[51]
  TGI: > 100 µM
[52]
  TGI: > 100 µM

## CC(C)OP(=O)(NC(=S)c1ccccc1)OC(C)C
[1]
  TGI: > 100 µM
[2]
  TGI: > 100 µM
[3]
  TGI: > 100 µM
[4]
  TGI: > 100 µM
[53]
  TGI: > 100 µM
[5]
  TGI: > 100 µM
[6]
  TGI: > 100 µM
[7]
  TGI: > 100 µM
[54]
  TGI: > 100 µM
[8]
  TGI: > 100 µM
[9]
  TGI: > 100 µM
[10]
  TGI: > 100 µM
[11]
  TGI: > 100 µM
[55]
  TGI: > 100 µM
[14]
  TGI: > 100 µM
[15]
  TGI: > 100 µM
[16]
  TGI: > 100 µM
[17]
  TGI: > 100 µM
[18]
  TGI: > 100 µM
[19]
  TGI: > 100 µM
[20]
  TGI: > 100 µM
[21]
  TGI: > 100 µM
[22]
  TGI: > 100 µM
[23]
  TGI: > 100 µM
[56]
  TGI: > 100 µM
[24]
  TGI: > 100 µM
[57]
  TGI: > 100 µM
[25]
  TGI: > 100 µM
[26]
  TGI: > 100 µM
[28]
  TGI: > 100 µM
[29]
  TGI: > 100 µM
[30]
  TGI: > 100 µM
[31]
  TGI: > 100 µM
[34]
  TGI: > 100 µM
[35]
  TGI: > 100 µM
[36]
  TGI: > 100 µM
[37]
  TGI: > 100 µM
[38]
  TGI: > 100 µM
[39]
  TGI: > 100 µM
[40]
  TGI: > 100 µM
[41]
  TGI: > 100 µM
[42]
  TGI: > 100 µM
[43]
  TGI: > 100 µM
[44]
  TGI: > 100 µM
[46]
  TGI: > 100 µM
[47]
  TGI: > 100 µM
[48]
  TGI: > 100 µM
[49]
  TGI: > 100 µM
[50]
  TGI: > 100 µM
[51]
  TGI: > 100 µM
[52]
  TGI: > 100 µM
